Laboratory results published in US11752139B2, “Therapeutic combinations of orally administered irinotecan and a p-gp inhibitor for the treatment of cancer” (priority 2018, dated 2023).
Where two headings read alike, the source gives them in different places.

Legend:
[1] = clinical; conditions: human, in vivo, po, N = 3; for AUC(0-t): AUC24 h
Procedure: (§1) A phase 1 dose escalation study was performed to determine the MTD and DLT of orally administered irinotecan in combination with 15 mg (on day 1 of a 21-day cycle) of HM30181A. The study was performed on cohorts of 3-6 subjects with advanced malignancies. Subjects had Hb (hemoglobin count) 9 gm/dL, ANC (absolute neutrophil count) 1.5×10^9/L, and platelets 100×10^9/L, as well as adequate hepatic and renal function, and ECOG (Eastern Cooperative Oncology Group Performance Status) 0-1, and were not homozygous for UGT1A1*28.

[2] = tested on: advanced malignancies; assay: Phase 1 dose escalation study of oral irinotecan with 15 mg HM30181A: response; assay type: in vivo, human; conditions: subjects with advanced malignancies; 15 mg HM30181A + oral irinotecan
Procedure: as §1

[3] = clinical; conditions: human, in vivo
[4] = Study 1: maximum tolerated dose of orally administered irinotecan with Compound A; assay type: in vivo, human; conditions: dosed five days of week one during a three-week cycle
Procedure: Orally administered irinotecan was determined to have a maximum tolerated dose (MTD) of 20 mg/m^2 per day when dosed five days of week one during a three-week cycle.

[5] = Study 2: pharmacokinetics of oral irinotecan and M1, 5-20 mg/m^2 per day for 10 days during a 21 day cycle; conditions: for AUC / Cmax: human, in vivo, oral, mean
[6] = human, in vivo
[7] = Study 2: maximum tolerated dose of orally administered irinotecan with Compound A; assay type: in vivo, human; conditions: dosed five days of week one and week two during a three-week cycle
Procedure: Orally administered irinotecan was determined to have a MTD of 10 mg/m^2 per day when dosed five days of week one and week two during a three-week cycle.

[8] = clinical; conditions: human, in vivo; remark: listed apart in the source
[9] = human, in vivo; remark: listed apart in the source
[10] = Simple Emax model of exposure (AUCinf, Cmax) versus dose
[11] = Study 1: pharmacokinetics of oral irinotecan and M1, 5-30 mg/m^2 per day for five days during a 21 day cycle
[12] = 15 mg HM30181A + 20-320 mg/m^2 oral irinotecan, day 1 of 21-day cycle, 30 patients
[13] = 15 mg HM30181A + 20-320 mg/m^2 oral irinotecan, 30 patients
[14] = 320 mg/m^2 dose level, with 15 mg HM30181A
[15] = dose 240 mg/m^2 oral irinotecan + 15 mg HM30181A
[16] = dose 280 mg/m^2 oral irinotecan + 15 mg HM30181A
[17] = dose 320 mg/m^2 oral irinotecan + 15 mg HM30181A

In the case of `CCc1c2c(nc3ccc(OC(=O)N4CCC(N5CCCCC5)CC4)cc13)-c1cc3c(c(=O)n1C2)COC(=O)[C@]3(O)CC` [oral irinotecan, (4S)-4,11-Diethyl-4-hydroxy-3,14-dioxo-3,4,12,14-tetrahydro-1H-pyrano[3′,4′:6,7]indolizino[1,2-b]quinolin-9-yl 1,4′-bipiperidine-1′-carboxylate, reference compound], the Acute cholinergic diarrhea (15 mg HM30181A + 20-320 mg/m^2 oral irinotecan) is reported as “not observed”, the “Treatment-related Grade 3-4 AEs, number of subjects” value [12] is reported as 12 subjects and the “Treatment-related Grade 3-4 AEs, share of subjects” value [12] is reported as 40%. For the same compound, the “SAEs nausea or vomiting, number of subjects” value [13] was 4 subjects, the “Treatment-related SAEs, number of patients” value [13] was 6 patients and the “vomiting (most common AEs), share of subjects” value [13] was 20%. The “DLTs, number of subjects” value [14] was 2 subjects, the “kind of DLTs” value [14] was “neutropenia and C. Difficile diarrhea” and the AUC(0-t) [1, 15] was 6960 ng·h/mL. The AUC(0-t) [1, 16] was 6040 ng·h/mL, the AUC(0-t) [1, 17] was 11300 ng·h/mL and the Cmax [1, 15] was 798 ng/mL. The Cmax [1, 16] was 763 ng/mL, the Cmax [1, 17] was 1060 ng/mL and the Tmax [1, 15] was 3 h. The Tmax [1, 16] was 2 h, the Tmax [1, 17] was 3 h and the “response of stable disease” value [2] was 9 out of 21. It also gave an AUC ([3]; 5 mg/m2, AUC24) of 50.9 ng·h/mL, a Cmax ([3]; 5 mg/m2, Cmax) of 6.52 ng/mL and an AUC ([3]; 10 mg/m2, AUC24) of 110 ng·h/mL. For the same compound, the Cmax ([3]; 10 mg/m2, Cmax) was 14 ng/mL, the AUC ([3]; 15 mg/m2, AUC24) was 194 ng·h/mL and the Cmax ([3]; 15 mg/m2, Cmax) was 20.6 ng/mL. The AUC ([3]; 20 mg/m2, AUC24) was 277 ng·h/mL, the Cmax ([3]; 20 mg/m2, Cmax) was 31.9 ng/mL and the AUC ([3]; 25 mg/m2, AUC24) was 703 ng·h/mL. It also gave a Cmax ([3]; 25 mg/m2, Cmax) of 63.6 ng/mL, an AUC ([3]; 30 mg/m2, AUC24) of 736 ng·h/mL and a Cmax ([3]; 30 mg/m2, Cmax) of 57.3 ng/mL. For the same compound, the “maximum tolerated dose (MTD)” value [4] was 20 mg/m^2 per day, the pharmacokinetics versus dose ([5]; 5-20 mg/m^2 per day for 10 days during a 21 day cycle) was “increased proportionally with dose” and the AUC ([5]; 5 mg/m2, AUC24, Day 1, dose group 5 mg/m^2) was 72.1 ng·h/mL. For the same compound, the AUC ([5]; 5 mg/m2, AUC24, Day 12, dose group 5 mg/m^2) was 95.1 ng·h/mL, the Cmax ([5]; 5 mg/m2, Cmax, Day 1, dose group 5 mg/m^2) was 9.65 ng/mL and the AUC ([5]; 10 mg/m2, AUC24, Day 1, dose group 10 mg/m^2) was 123 ng·h/mL. The AUC ([5]; 10 mg/m2, AUC24, Day 12, dose group 10 mg/m^2) was 186 ng·h/mL, the Cmax ([5]; 10 mg/m2, Cmax, Day 1, dose group 10 mg/m^2) was 15.5 ng/mL and the Cmax ([5]; 10 mg/m2, Cmax, Day 12, dose group 10 mg/m^2) was 17.9 ng/mL. The AUC ([5]; 15 mg/m2, AUC24, Day 1, dose group 15 mg/m^2) was 284 ng·h/mL, the AUC ([5]; 15 mg/m2, AUC24, Day 12, dose group 15 mg/m^2) was 281 ng·h/mL and the Cmax ([5]; 15 mg/m2, Cmax, Day 1, dose group 15 mg/m^2) was 26.9 ng/mL. For the same compound, the Cmax ([5]; 15 mg/m2, Cmax, Day 12, dose group 15 mg/m^2) was 38.1 ng/mL, the AUC ([5]; 20 mg/m2, AUC24, Day 1, dose group 20 mg/m^2) was 271 ng·h/mL and the AUC ([5]; 20 mg/m2, AUC24, Day 12, dose group 20 mg/m^2) was 442 ng·h/mL. For the same compound, the Cmax ([5]; 20 mg/m2, Cmax, Day 1, dose group 20 mg/m^2) was 28.8 ng/mL, the Cmax ([5]; 20 mg/m2, Cmax, Day 12, dose group 20 mg/m^2) was 64.6 ng/mL and the AUC24 ([6]; 5 mg/m2) was 64.59 µg·h/L. For the same compound, the AUC24 ([6]; 10 mg/m2) was 209.12 µg·h/L, the AUC24 ([6]; 15 mg/m2) was 379.56 µg·h/L and the AUC24 ([6]; 25 mg/m2) was 481.39 µg·h/L. The AUC24 ([6]; 30 mg/m2) was 454.54 µg·h/L, the MTD [7] was 10 mg/m^2 per day and the Cmax ([8]; 240 mg/m2, Observed Mean (Cmax)) was 798 ng/mL. It also gave an AUC0-inf ([8]; 240 mg/m2, Observed Mean AUCinf) of 8150 ng·h/mL, a Cmax ([8]; 280 mg/m2, Observed Mean (Cmax)) of 763 ng/mL and an AUC0-inf ([8]; 280 mg/m2, Observed Mean AUCinf) of 6980 ng·h/mL. For the same compound, the Cmax ([8]; 320 mg/m2, Observed Mean (Cmax)) was 1060 ng/mL, the AUC0-inf ([8]; 320 mg/m2, Observed Mean AUCinf) was 14200 ng·h/mL and the Cmax ([8]; po, 240 mg/m2, Cmax) was 668 ng/mL. For the same compound, the Tmax ([8]; po, 240 mg/m2, Tmax) was 3 h, the AUC ([8]; po, 280 mg/m2, AUC24) was 5020 ng·h/mL and the AUC0-inf ([8]; po, 280 mg/m2, AUCinf) was 6010 ng·h/mL. For the same compound, the AUC(0-t) ([8]; po, 280 mg/m2, AUClast) was 5890 ng·h/mL, the Cmax ([8]; po, 280 mg/m2, Cmax) was 736 ng/mL and the Tmax ([8]; po, 320 mg/m2, Tmax) was 3 h. For the same compound, the “Cmax compared with IV dosed irinotecan” value [9] was “below the range for 125 mg/m^2 of IV dosed irinotecan”, the “dose at which Cmax began to plateau” value [9] was 200 mg/m^2 and the Tmax ([9]; po, 280 mg/m2) was 1 h. For the same compound, the “Predicted AUCinf” value ([10]; dose 200 mg/m^2) was 6992, the “Predicted Cmax” value ([10]; dose 200 mg/m^2) was 549 and the “Predicted AUCinf” value ([10]; dose 240 mg/m^2) was 7679. The “Predicted Cmax” value ([10]; dose 240 mg/m^2) was 600, the “Predicted AUCinf” value ([10]; dose 280 mg/m^2) was 8253 and the “Predicted Cmax” value ([10]; dose 280 mg/m^2) was 643. The “Predicted AUCinf” value ([10]; dose 320 mg/m^2) was 10189, the “Predicted Cmax” value ([10]; dose 320 mg/m^2) was 752 and the pharmacokinetics versus dose ([11]; 5-30 mg/m^2 per day for five days during a 21 day cycle) was “increased proportionally with dose”. It also gave an AUC ([11]; human, in vivo, 20 mg/m2) of 412 ng·h/mL.
